The text below walks through data of patent US20260234217A1, “USE OF BMP RECEPTOR ALK1 INHIBITORS IN OSTEOARTHRITIS THERAPIES” (The Regents of the University of California, priority 2023, published 2026).

“Also recorded” adds a separate entry of the source.

Assay [1] has as its system chondrocyte hypertrophy and MMP13 expression. The note with it: ex vivo and in vivo; cited from earlier work.
Assay [2] deals with bone marrow stromal cell-derived chondrocytes. The note with it: cited from earlier work.
Assay [3] has as its system AC cartilage. The note with it: post-traumatic OA model, Jaswal et al.; cited from earlier work.
The test system of assay [4] is articular cartilage of DMM mice. The experiment in a line: DMM model of post-traumatic OA: Safranin-O/Fast Green staining and OARSI scoring of articular cartilage damage. The assay is classed as in vivo, mouse. The note with it: mice with established osteoarthritis, 50 ng/dose injected into knee joint space. Here is the method: (§1) FIG. 13. Growth differentiation factor 11 (GDF11, see, e.g., NCBI Reference Sequence: NP_005802.1) competes with BMP9/10 for binding to BMP type II receptors ACVRIIA or ACVRIIB, thereby preventing the association of BMP type I receptor ALK1 with ACVRIIA/B and decreasing BMP signaling. […] We tested this hypothesis by locally injecting GDF11 (50 ng/dose) into the knee joint space at mice with established post-traumatic OA. (A) Experimental Outline (B) Safranin-O/Fast Green (SOFG) Staining of sagittal sections of the knee joint, femur (top) and tibia (bottom) for proteoglycan (cartilage; red) and bone (green) at week 8 after DMM or Sham surgery. Mice were treated with either GDF11, or Phosphate Buffered Saline (PBS) after received surgery (n=5/group). 4-Week DMM mice were sacrificed 4 weeks after surgery and received no treatment (n=6). AC damage indicated by dotted line. (C-D) Osteoarthritis Research Society International (OARSI) scoring of AC damage in the (C) medial tibial plateau and (D) medial femoral condyle in representative sections of each treatment at week 4 or 8 after surgery. All data are shown as mean bar+/−standard deviation *p<0.05. Data analysis performed was one-way ANOVA. Scale 250 uM.
Mice (C57BL/6J) were purchased from The Jackson Laboratory. All mice were housed on a 12-hour light/dark cycle with unrestricted access to standard mouse food and water. The DMM model of injury induced OA was performed on mice at 12 weeks of age by opening the joint capsule and transecting the medial meniscotibial ligament in the right knee, destabilizing the medial meniscus(48). A sham operation was performed on the left knee of each mouse by observing the medial meniscotibial ligament but not transecting it. Mice were administered carprofen 5 mg/kg (Zoetis; 1041283) subcutaneously 30 minutes prior to surgery, immediately post-surgery, and 24 hours post-surgery to minimize pain.
Treatments were initiated either 1 day after DMM surgery once a week for 8 weeks, or 1 month after DMM surgery twice a week for 4 weeks. Mice were sacrificed at 20 weeks of age (2 months after surgery). To understand the level of articular cartilage damage 1 month after DMM surgery, a cohort of mice was sacrificed at 16 weeks old (FIG. 4).
Knee joint samples were harvested and fixed in 4% Paraformaldehyde for 3 days, and subsequently decalcified in formic acid (Statlab; 1414-32) for 3 days and embedded in paraffin. Sagittal sections 7 micrometers in thickness were taken and stained using Safranin-O (Sigma-Aldrich; S8884-25G), fast green (Sigma-Aldrich; F7258-25G), and hematoxylin (Fisherbrand; 245-656) using a standard histology protocol. Images were taken with the Olympus BX60 brightfield microscope using a 10× objective lens. Representative sections throughout the medial and lateral portion of side were chosen for histological analysis, resulting in 5 sections being imaged for both portions of the joint.
The 10 total sections per joint chosen for histology received randomized sample numbers and were given to three independent researchers who scored the level of cartilage damage based on OARSI guidelines (84). OARSI scores were analyzed with Prism 9 Software (GraphPad) using two-way ANOVA and Tukey's multiple comparisons test post-hoc. Scoring was performed by at least three experienced investigators blinded to treatment/genotype. Scores were averaged for the medial tibial plateau, medial femoral condyle, lateral tibial plateau, and lateral femoral condyle for each sample.

In assay [5] the test system is TGFbeta signaling. The experiment in a line: GDF11 injection into the knee joint of mice with established post-traumatic OA: TGFbeta signaling. The assay is classed as in vivo, mouse. The note with it: data of FIG. 13. On the procedure: as §1, with “uM. […]” for “uM.”

As for `c1ccc2c(-c3cnn4cc(-c5ccc(N6CCNCC6)cc5)cnc34)ccnc2c1` [LDN-193189], in assay [1], the “chondrocyte hypertrophy and MMP13 expression” value is “prevented”. Further, in assay [2], the “chondrocyte hypertrophy / chondrogenic hypertrophic markers in vitro” value was “not able to prevent; also recorded: no reduction”. Also, in assay [3], the “protection of AC cartilage” value is listed as “protective”.

B1: GDF11: GDF11 protein from Bio-techne/R&D, catalog 1958-GD, truncated active protein of 109 amino acids (protein, UniProt O95390 299-407, looked up)
Growth/differentiation factor …: NLGLDCDEHSSESRCCRYPLTVDFEAFGWDWIIAPKRYKANYCSGQCEYMFMQKYPHTHLVQQANPRGSAGPCCTPTKMSPINMLYFNDKQQIIYGKIPGMVVDRCGCS
modifications: Growth/differentiation factor 11
With B1, the “degeneration of articular cartilage” value in assay [4] is recorded as “attenuate the degeneration of articular cartilage”. In addition, the TGFbeta signaling entry in assay [5] is given as “increase TGFbeta signaling”.
